2 compounds from patent US20140348958A1, “Anticancer Active Ingredient From Guiera Senegalensis” (UNIVERSITE D'AUVERGNE CLERMONT I, priority 2011, published 2014) can be followed below.

“And” between values parts separate entries of the source, which are not always exact repeats. Identical values can stand only once. Like-named read-outs stand apart in the source and are kept apart here.

This test relates to mammary cancer cells MCF-7. Nature of the test: Proliferation measurement of mammary cancer cells MCF-7 (resazurin, 72 hrs exposure). Type of test: cell-based. The conditions noted are these: for IC50: Homo sapiens; for Inhibition percentage: screening, single values and Averages. How it is done: Detailed Procedure of the Proliferation Measurement of Mammary Cancer Cells MCF-7
1st Part Day 1: Sowing the Cells
1. Preparation of the Medium:
• Preparation of the volume to be put into the plates:
In a 50 mL Falcon, prepare 30 mL of complete RPMI with 10% FCS and 1% Glutamine: 27 mL of RPMI: 3 mL of FCS and 300 μL of Glutamine.
2. Preparation of the Cell Suspension:
• Suck up the medium contained in the flask with the vacuum pump • Rinse with 3 mL of PBS and suck up with the vacuum pump • Add 1 mL of trypsin and let it act for 3 mins in the oven at 37° C. in order to detach the cells. • When the cells are detached, add 2 mL of complete medium prepared previously for inactivating the trypsin. • Mix well the suspension by suction-discharge and transfer into a well-defined Falcon 15. • Count the cells in a Malassez cell: carry out dilution to one 20th for counting them with Trypan blue.
• Sow the plates with 200 μL of cell suspension according to the determined scheme • Put 200 μL of water in the peripheral wells • Leave for incubation for 24 hours.
2nd Part: Day 2, the Extract is Exposed
4. Preparation of the Medium:
A total of 45 mL of medium to be prepared in a Falcon 50 sterilized i.e. 40.5 mL of RPMI+4.5 mL of FCS+450 μL of glutamine
5. Preparation of the Extracts:
• prepare a 10 mg/mL solution: • Dissolve 8.1 mg of crude extract (noted as SF) according to Example 1, of the SF 5 fraction according to Example 2 or of the KP-18^E fraction (Guieranone B) in 810 μL of DMSO • Prepare the mother solution of extract (Ex) at 100 μg/mL i.e. 50 μL of (10 mg/ml) in 4,950 μL of RPMI • Produce the range of extracts (for 1 extract and only 1 range). • Remove the medium in the plates and add 200 μL per well of an extract range (one column per concentration). • Incubate the plates in the oven at 37° C. for 72 hrs.
6. Prepare Resazurin (Developer) and Read the Plate to
2 columns of cells+one column of resazurin alone=3 columns
200 μL/well×3 columns×6 lines=3,600 μL (total volume to be prepared: 5 mL) • Prepare 4.9 mL of medium+100 μL resazurin
Remove the medium and add 200 μL of (medium+resazurin) per well. • Incubate for 2 hours and read with fluorskan. 3rd Part: Measurement of Proliferation at 24 Hours (for t0), 72 Hrs for Extract • For the extract at 72 hrs:
200 μL/well×18 columns×6 lines (total volume to be prepared: 25 mL) • Prepare 24.5 mL of RPMI+500 μL of resazurin • Remove the medium and add 200 μL of (medium+resazurin) per well. • After 2 hours, readout with fluorskan.
Background: Alamar Blue is a resazurin reagent that responds to reducing activity.

The mark [1] stands for this setting: MCF7, MCF-7 mammary cancer cell line, same conditions (Table 2), read-out: Average Cl50 in μM.
[2] abbreviates: MCF7, MCF-7 mammary cancer cell line, same conditions (Table 2), read-out: Average Cl50 in μg/mL.
[3] abbreviates: MCF7, mammary cancer line MCF-7, same conditions (Table 15, identical with Table 2), read-out: Average CI50 in μM.
Setting [4] is: MCF7, mammary cancer line MCF-7, same conditions (Table 15, identical with Table 2), read-out: Average CI50 in μg/mL.

On to `O=c1[nH]cc(F)c(=O)[nH]1` [5-FU, 5-Fluorouracil, reference compound], for which the IC50 reads like this: under setting [1], 4.04 ± 0.39 µM; under setting [2], 0.53 ± 0.05 µg/mL; under setting [3], 4.04 ± 0.39 µM; under setting [4], 0.53 ± 0.05 µg/mL.
`C/C=C/C(=O)C1=CC(OC)=C2C(=O)C(OC)=CC(OC)=C2C1=O` [Guieranone B]: the IC50 was found to be 2.25 µg/mL (MCF7, 72 h, KP-18E, MCF-7, 72 hrs, average of the 6 tests, read-out: Average C150); 2.05 µg/mL (MCF7, 72 h, KP-18E, MCF-7, 72 hrs, each of the 6 tests (1-2, N1-N3), read-out: CI50 (the source's name)); 7.09 µM under setting [1]; 2.24 ± 0.13 µg/mL under setting [2]; 7.09 µM under setting [3]; 2.24 ± 0.13 µg/mL under setting [4]. For the same compound, the Inhibition percentage is, setting by setting: (KP-18E 1.5 μg/mL, MCF-7, 72 hrs) 49.86% and 36.10% and 48.15% and 50.66% and 53.59% and 53.16%; (KP-18E 1.5 μg/mL, MCF-7, 72 hrs, mean) 48.59%; (KP-18E 2 μg/mL, MCF-7, 72 hrs) 68.59% and 62.54% and 43.35% and 59.58% and 61.13% and 48.79%; (KP-18E 2 μg/mL, MCF-7, 72 hrs, mean) 57.33%; (KP-18E 2.5 μg/mL, MCF-7, 72 hrs) 69.73% and 57.84% and 59.61% and 65.92% and 65.73% and 68.02%; (KP-18E 2.5 μg/mL, MCF-7, 72 hrs, mean) 64.48%. The Inhibition percentage was 94.22% and 77.40% and 86.16% and 83.19% and 84.81% and 92.10% (KP-18E 3 μg/mL, MCF-7, 72 hrs); 86.31% (KP-18E 3 μg/mL, MCF-7, 72 hrs, mean); 100.00% and 99.38% (KP-18E 4 μg/mL, MCF-7, 72 hrs); 99.90% (KP-18E 4 μg/mL, MCF-7, 72 hrs, mean); 100.00% (KP-18E 5 μg/mL, MCF-7, 72 hrs). Also, for the setting “KP-18E, MCF-7, 72 hrs, each of the 6 tests (1-2, N1-N3)”, the CI50 was 2.7202 µg/mL and 2.1664 µg/mL and 2.5518 µg/mL and 2.067 µg/mL and 1.9176 µg/mL. Further, where the note is “line of mammary cancer cells MCF-7”, the “antiproliferative activity (in words)” value is given as “high antiproliferative activity”.
